Laboratory results: patent publication US6603023B2 (priority 1996, dated 2003)
Read-outs that look alike come from different tables or passages of the source. Marks after values point to notes of the source that are not given here.

Assays:
B16 Melanoma = type: in vivo, B6D2F1 mice; conditions: B6D2F1, mouse, in vivo
Description: Body weight was determined at 0, 2, 4, 6, 8, 10 and 12 days. […] Injections were started on day 1. […] Body weight was determined at 0, 2, 4, 6, 8, 10 and 12 days. […] Injections were started on day 1.

[1] = test system: human ovarian adenocarcinoma SK-OV-3
[2] = test system: human mammary carcinoma MX-1 xenograft; set-up: Toxicity toward Nude Mice: key to the marks not given beside the values; conditions: for Average Body Weight, Day 7: initial weight, first treatment day
Description: (§1) DMSO was used as a vehicle for epothilones. Each mouse received ≦40 μL DMSO in all experiments.
(§2) Athymic nude mice (nu/nu) were used for MX-1 and MCF-7/Adr human mammary carcinoma xenografts. Mice were obtained from Taconic Laboratory Animals and Service (Germantown, N.Y.: outbred, Swiss background).

CCRF-CEM/VBL = CCRF-CEM/VBL xenograft in nude mice, i.v. 6 h infusion; type: in vivo; conditions: CCRF/VBL Leukemia; dEpoB 30 mg/kg Q2D x 5, Taxol 15 mg/kg Q2D x 5
Description: Treatment on days 19, 21, 23, 25, 27, 39, 41, 43, 45, 47 and 53.

[3] = Hematology and blood chemistry toxicity in MX-1 bearing mice; conditions: day 30; dEpoB 25 mg/kg i.p. day 7-15 then 35 mg/kg day 17-25; Taxol 5 then 6 mg/kg; MX-1 bearing nude mice
Human CCRF-CEM Xenograft = test: CCRF-CEM xenograft in scid mice; type: in vivo, CB-17 scid mice
[4] = test system: MDR human mammary adenocarcinoma MCF-7/Adr xenograft; test: in vivo
Description: as §1, §2

[5] = 5 mg/kg i.p. Q2Dx5 from day 9, day 13
[6] = 5 mg/kg i.p. Q2Dx5 from day 9, day 15
[7] = 5 mg/kg i.p. Q2Dx5 from day 9, day 17
[8] = 5 mg/kg i.p. Q2Dx5 from day 9, day 19
[9] = SK-OV-3 Ovary, dEpoB 30 mg/kg Q2D x 6, Taxol 15 mg/kg Q2D x 6
[10] = Taxol 15 mg/kg i.v. Q2Dx5 from day 9
[11] = Taxol 5 mg/kg on day 8-16 and 18-26, n = 10
[12] = Taxol 24 mg/kg, 6 hr i.v. infusion Q2D x 5 (day 8-16)
[13] = dEpo B 30, Taxol 15 mg/kg, 6 hr i.v. infusion Q2D x 5 (day 8-16)
[14] = dEpo B 30, Taxol 15 mg/kg, 6 hr i.v. infusion Q2D x 5 (day 8-16), TD: Tumor disappearance
[15] = extended experiment, Desoxyepo B 40, Taxol 5 mg/kg i.p. Q2D day 8-16 and 18-26
[16] = high doses: dEpoB 25, EpoB 0.6, Taxol 10, Vinblastine 0.4 mg/kg i.p. Q2D from day 7
[17] = low doses: dEpoB 15, EpoB 0.3, Taxol 5, Vinblastine 0.2 mg/kg i.p. Q2D day 7-15
[18] = male, athymic nude (nu/nu), outbred, Swiss background, mouse, in vivo
[19] = dose 2.0 i.p. QD d7-10,14,15, day 12
[20] = dose 2.0 i.p. QD d7-10,14,15, day 17
[21] = dose 2.0 i.p. QD d7-10,14,15, day 22
[22] = dose 4.0 i.p. QD d7-10,14,15, day 12
[23] = dose 4.0 i.p. QD d7-10,14,15, day 17
[24] = dose 4.0 i.p. QD d7-10,14,15, day 22
[25] = MCF-7/Adr Breast, dEpoB 30 mg/kg Q2D x 5, Taxol 24 mg/kg Q2D x 5
[26] = high doses: Taxol 12, Adriamycin 3, Camptothecin 3.0 mg/kg i.p. day 8,10,12,14,16

CC(=O)O[C@H]1C(=O)[C@@]2(C)[C@H]([C@H](OC(=O)c3ccccc3)[C@]3(O)C[C@H](OC(=O)[C@H](O)[C@@H](NC(=O)c4ccccc4)c4ccccc4)C(C)=C1C3(C)C)[C@]1(OC(C)=O)CO[C@@H]1C[C@@H]2O [Taxol ®, paclitaxel]
# Mice Died (B16 Melanoma): 0/8
Tumor Disapp. ([1]; 5 mg/kg i.p. Q2Dx5 from day 9): 0/6
Average Body Weight Change [1, 5]: -1.1 g
Average Body Weight Change [1, 6]: -2.0 g
Average Body Weight Change [1, 7]: -1.0 g
Average Body Weight Change [1, 8]: -0.2 g
Lowest Average Tumor Size (T/C) [1, 9]: 0.02 T/C
Tumor Disappearance [1, 9]: 1/4
Tumor Disapp. [1, 10]: 0/6
Average Body Weight Change ([1]; Taxol 15 mg/kg i.v. Q2Dx5 from day 9, day 13): -0.6 g
Average Body Weight Change ([1]; Taxol 15 mg/kg i.v. Q2Dx5 from day 9, day 15): -0.8 g
Average Body Weight Change ([1]; Taxol 15 mg/kg i.v. Q2Dx5 from day 9, day 17): -0.8 g
Average Body Weight Change ([1]; Taxol 15 mg/kg i.v. Q2Dx5 from day 9, day 19): -0.9 g
Toxicity Death ([1]; nude, mouse, in vivo): 0/6
Average Body Weight Change ([2]; 5 mg/kg i.p. Q2Dx5 from day 7, day 11): -0.1 g
Average Body Weight Change ([2]; 5 mg/kg i.p. Q2Dx5 from day 7, day 13): +0.4 g
Average Body Weight Change ([2]; 5 mg/kg i.p. Q2Dx5 from day 7, day 15): +1.1 g
Average Body Weight Change ([2]; 5 mg/kg i.p. Q2Dx5 from day 7, day 17): +1.2 g
Tumor Disapp. ([2]; 5 mg/kg i.p. Q2Dx5 from day 9): 0/6
Average Body Weight Change [2, 5]: -1.1 g
Average Body Weight Change [2, 6]: -2.0 g
Average Body Weight Change [2, 7]: -1.0 g
Average Body Weight Change [2, 8]: -0.2 g
Tumor Disappearance ([2]; 5 mg/kg i.p. d8,10,12,14,16): 2/10
Tumor Disappearance ([2]; 5 mg/kg i.p. d18-26, extended after d8-16, day 20): 0/10^
Tumor Disappearance ([2]; 5 mg/kg i.p. d18-26, extended after d8-16, day 22): 0/10
Tumor Disappearance ([2]; 5 mg/kg i.p. d18-26, extended after d8-16, day 24): 0/10
Tumor Disappearance ([2]; 5 mg/kg i.p. d18-26, extended after d8-16, day 26): 0/10
Tumor Disappearance ([2]; 5 mg/kg i.p. d18-26, extended after d8-16, day 28): 0/10
Average Body Weight Change ([2]; 10 mg/kg i.p. Q2Dx5 from day 7, day 11): -2.7 g
Average Body Weight Change ([2]; 10 mg/kg i.p. Q2Dx5 from day 7, day 13): -1.1 g
Average Body Weight Change ([2]; 10 mg/kg i.p. Q2Dx5 from day 7, day 15): -0.3 g
Average Body Weight Change ([2]; 10 mg/kg i.p. Q2Dx5 from day 7, day 17): +2.2 g
Tumor Disappearance ([2]; 10 mg/kg i.p. d8,10,12,14,16): 2/6
tumor reappeared on day ([2]; 10 mg/kg, no extended test): Reappeared on day 38
Tumor Disappearance ([2]; 10 mg/kg, no extended test, day 16): 1/6 on day 16
Lowest Average Tumor Size (T/C) ([2]; MX-1, dEpoB 30 mg/kg Q2D x 6, Taxol 15 mg/kg Q2D x 6): 0 T/C
tumor volume reduction ([2]; Taxol 5 mg/kg i.p. Q2Dx5 from day 8): 53%
Tumor Size (group average), Day 8 [2, 11]: 17 mm^3
Tumor Size (group average), Day 10 [2, 11]: 45 mm^3
Tumor Size (group average), Day 12 [2, 11]: 54 mm^3
Tumor Size (group average), Day 14 [2, 11]: 128 mm^3
Tumor Size (group average), Day 16 [2, 11]: 311 mm^3
Tumor Size (group average), Day 18 [2, 11]: 596 mm^3
Tumor Size (group average), Day 20 [2, 11]: 1114 mm^3
Tumor Size (group average), Day 22 [2, 11]: 1930 mm^3
Tumor Size (group average), Day 24 [2, 11]: 2285 mm^3
Tumor reappearance (Reappear on day) ([2]; Taxol 10 mg/kg, no extended test): Reappear on day 38
Tumor Disappearance ([2]; Taxol 10 mg/kg, on day 16, no extended test): 1/6 on day 16,
Tumor Disapp. [2, 10]: 2/6
Average Body Weight (change), Day 14 [2, 12]: -4.8 g
Average Body Weight (change), Day 16 [2, 12]: -5.3 g
Average Body Weight (change), Day 18 [2, 12]: -6.0 g
Average Body Weight (change), Day 20 [2, 12]: -6.2 g
Tumor Disappearance [2, 12]: 4/4
Average Tumor Size (T/C), Day 14 ([2]; Taxol 24 mg/kg, 6 hr i.v. infusion Q2D x 5 (day 8-16), TD: Tumor disappearance): 0.03 T/C
Tumor Disappearance [2, 13]: 4/4
Average Tumor Size (T/C), Day 14 [2, 14]: 0.06 T/C
Average Tumor Size (T/C), Day 16 [2, 14]: 0.01 T/C
Average Body Weight Change, Day 20 [2, 15]: -1.6 g
Average Body Weight Change, Day 22 [2, 15]: -0.3 g
Average Body Weight Change, Day 24 [2, 15]: +0.1 g
Average Body Weight Change, Day 26 [2, 15]: -0.6 g
Average Body Weight Change, Day 28 [2, 15]: -0.4 g
Tumor Disappearance, Day 20 [2, 15]: 0/10
Tumor Disappearance, Day 22 [2, 15]: 0/10
Tumor Disappearance, Day 24 [2, 15]: 0/10
Tumor Disappearance, Day 26 [2, 15]: 0/10
Tumor Disappearance, Day 28 [2, 15]: 0/10
Average Tumor Volume (T/C), Day 11 [2, 16]: 0.43 T/C
Average Tumor Volume (T/C), Day 13 [2, 16]: 0.37 T/C
Average Tumor Volume (T/C), Day 15 [2, 16]: 0.12 T/C
Average Tumor Volume (T/C), Day 17 [2, 16]: 0.11 T/C
Average Body Weight, Day 7 [2, 16]: 27.6 g
Average Body Weight, Day 7 [2, 17]: 26.9 g
Average Tumor Volume (T/C), Day 11 [2, 17]: 0.54 T/C
Average Tumor Volume (T/C), Day 13 [2, 17]: 0.46 T/C
Average Tumor Volume (T/C), Day 15 [2, 17]: 0.40 T/C
Average Tumor Volume (T/C), Day 17 [2, 17]: 0.45 T/C
# Mice Died ([2]; male, athymic nude (nu/nu), mouse, in vivo): 0/10
# Died of toxicity [2, 18]: 2/10
# Mice Died [2, 18]: 1/6
lethality [2, 18]: 2/6
lethality (mice died of toxicity) [2, 18]: 2/10
mice died of toxicity [2, 18]: 2 out of 10
Tumor Disappearance ([2]; mouse, in vivo): 5/5
mice died of toxicity ([2]; mouse, in vivo): four out of seven
Toxicity toward Nude Mice ([2]; mouse, in vivo, ip, 15 mg/kg): ++++
Toxicity toward Nude Mice ([2]; mouse, in vivo, ip, 35 mg/kg): ++
Toxicity toward Nude Mice ([2]; mouse, in vivo, iv, 15 mg/kg): ++
Toxicity toward Nude Mice ([2]; mouse, in vivo, iv, 24 mg/kg): ++
Toxicity toward Nude Mice ([2]; mouse, in vivo, iv, 30 mg/kg): ++
reduction in tumor volume ([2]; paclitaxel 5 mg/kg): 55%
average tumor size on day 24 ([2]; paclitaxel 5 mg/kg Q2Dx5 i.p. d8-16 and d18-26, n=10): 2285±97 mm^3
tumor reduction ([2]; paclitaxel 10 mg/kg): 89%
Lowest Average Tumor Size (T/C) (CCRF-CEM/VBL): 0.76 T/C
Tumor Disappearance (CCRF-CEM/VBL): 0
GOT [3]: 438 U/L
GPT [3]: 79 (n = 5) U/L
WBC Lymph [3]: 48%
WBC Neutrophils [3]: 51%
WBC Total [3]: 10.9 10^3/mm^3
Average weight change (Human CCRF-CEM Xenograft; dose 2.0 i.p. QD d7-10,14,15, day 7): −0.1
Average tumor volume (control = 1.00) (Human CCRF-CEM Xenograft; [19]): 0.39
Average weight change (Human CCRF-CEM Xenograft; [19]): −1.1
Average tumor volume (control = 1.00) (Human CCRF-CEM Xenograft; [20]): 0.29
Average weight change (Human CCRF-CEM Xenograft; [20]): −1.5
Average tumor volume (control = 1.00) (Human CCRF-CEM Xenograft; [21]): 0.28
Average weight change (Human CCRF-CEM Xenograft; [21]): −0.3
Average weight change (Human CCRF-CEM Xenograft; dose 4.0 i.p. QD d7-10,14,15, day 7): −0.2
Average tumor volume (control = 1.00) (Human CCRF-CEM Xenograft; [22]): 0.37
Average weight change (Human CCRF-CEM Xenograft; [22]): −1.7
Average tumor volume (control = 1.00) (Human CCRF-CEM Xenograft; [23]): 0.23
Average weight change (Human CCRF-CEM Xenograft; [23]): −1.9
Average tumor volume (control = 1.00) (Human CCRF-CEM Xenograft; [24]): 0.19
Average weight change (Human CCRF-CEM Xenograft; [24]): −0.3
Lowest Average Tumor Size (T/C) [4, 25]: 0.71 T/C
Tumor Disappearance [4, 25]: 0
tumor size reduction ([4]; Taxol 6 mg/kg i.p. Q2Dx5, day 17): 100%
Average Body Weight (change), Day 14 [4, 12]: -4.8 g
Average Body Weight (change), Day 16 [4, 12]: -5.3 g
Average Body Weight (change), Day 18 [4, 12]: -6.0 g
Average Tumor Size (T/C), Day 14 [4, 12]: 0.73 T/C
Average Tumor Size (T/C), Day 16 [4, 12]: 0.71* T/C
Average Tumor Size (T/C), Day 18 [4, 12]: 0.73* T/C
Average Tumor Size (T/C), Day 14 [4, 13]: 0.81 T/C
Average Tumor Size (T/C), Day 16 [4, 13]: 0.89 T/C
Average Tumor Size (T/C), Day 18 [4, 13]: 0.76 T/C
Average Tumor Volume (T/C), Day 11 [4, 26]: 0.50 T/C
Average Tumor Volume (T/C), Day 13 [4, 26]: 0.51 T/C
Average Tumor Volume (T/C), Day 15 [4, 26]: 0.32 T/C
Average Tumor Volume (T/C), Day 17 [4, 26]: 0.40 T/C
Toxicity Death [4, 18]: 0/4
lethality [4, 18]: 3/7
tumor growth suppression ([4]; paclitaxel 5 mg/kg (so in the source)): slight growth suppression
